Laboratory results reported in ChEMBL document CHEMBL4184261, “Activation loop targeting strategy for design of receptor-interacting protein kinase 2 (RIPK2) inhibitors” (Bioorg Med Chem Lett, 2018).
The source made the active and inactive calls. The rule behind the calls is not given here.

How the values were obtained:
[1] = molecular target: Receptor-interacting serine/threonine-protein kinase 2 (Homo sapiens) (UniProt O43353); assay: Inhibition of wild type recombinant human His6-tagged RIPK2 at 10 uM using RS repeat peptide substrate incubated for 2 hrs by ADP-Glo assay
[2] = molecular target: Receptor-interacting serine/threonine-protein kinase 2 (Homo sapiens) (UniProt O43353); assay: Inhibition of wild type recombinant human His6-tagged RIPK2 at 5 uM using RS repeat peptide substrate incubated for 2 hrs by ADP-Glo assay
[3] = tested on: Receptor-interacting serine/threonine-protein kinase 2 (Homo sapiens), O43353 [R171C]; assay: Inhibition of recombinant human His6-tagged RIPK2 R171C mutant at 5 uM using RS repeat peptide substrate incubated for 2 hrs by ADP-Glo assay
[4] = molecular target: Receptor-interacting serine/threonine-protein kinase 2 (Homo sapiens) (UniProt O43353); assay: Inhibition of wild type recombinant human His6-tagged RIPK2 at 0.5 uM using RS repeat peptide substrate incubated for 2 hrs by ADP-Glo assay
Homo sapiens [5] = species: Homo sapiens; assay: Selectivity index, ratio of inhibition of N-terminal GST tagged recombinant human KDR (789 to end residues) expressed in baculovirus infected Sf9 cells to inhibition of wild type recombinant human His6-tagged RIPK2
[6] = molecular target: Vascular endothelial growth factor receptor 2 (Homo sapiens) (UniProt P35968); assay: Inhibition of N-terminal GST tagged recombinant human KDR (789 to end residues) expressed in baculovirus infected Sf9 cells at 20 uM using poly-E4Y1 substrate incubated for 2 hrs by ADP-Glo assay
Homo sapiens [7] = species: Homo sapiens; assay: Selectivity index, ratio of IC50 for recombinant human His6-tagged RIPK2 R171C mutant to IC50 for wild type recombinant human His6-tagged RIPK2

Sequence of Receptor-interacting serine/threonine-protein kinase 2 (Homo sapiens) (O43353 whole entry): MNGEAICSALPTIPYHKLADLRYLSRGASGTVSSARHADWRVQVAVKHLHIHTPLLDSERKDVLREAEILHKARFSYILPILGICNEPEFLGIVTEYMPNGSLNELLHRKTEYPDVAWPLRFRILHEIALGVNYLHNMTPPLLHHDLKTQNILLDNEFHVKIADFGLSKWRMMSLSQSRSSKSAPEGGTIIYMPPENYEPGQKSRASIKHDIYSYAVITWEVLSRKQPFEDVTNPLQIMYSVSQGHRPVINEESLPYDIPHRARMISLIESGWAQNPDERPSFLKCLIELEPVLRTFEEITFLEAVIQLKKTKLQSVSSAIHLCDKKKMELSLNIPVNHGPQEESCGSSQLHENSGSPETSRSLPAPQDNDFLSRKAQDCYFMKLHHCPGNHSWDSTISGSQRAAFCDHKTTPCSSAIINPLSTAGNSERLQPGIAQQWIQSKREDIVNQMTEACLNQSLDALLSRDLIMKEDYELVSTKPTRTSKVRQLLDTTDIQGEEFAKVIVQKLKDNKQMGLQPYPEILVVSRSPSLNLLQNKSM
Sequence of Receptor-interacting serine/threonine-protein kinase 2 (Homo sapiens), O43353 [R171C] (O43353 whole entry R171C): as the sequence (O43353 whole entry) above, with R171C counted along it
Sequence of Vascular endothelial growth factor receptor 2 (Homo sapiens) (P35968 whole entry): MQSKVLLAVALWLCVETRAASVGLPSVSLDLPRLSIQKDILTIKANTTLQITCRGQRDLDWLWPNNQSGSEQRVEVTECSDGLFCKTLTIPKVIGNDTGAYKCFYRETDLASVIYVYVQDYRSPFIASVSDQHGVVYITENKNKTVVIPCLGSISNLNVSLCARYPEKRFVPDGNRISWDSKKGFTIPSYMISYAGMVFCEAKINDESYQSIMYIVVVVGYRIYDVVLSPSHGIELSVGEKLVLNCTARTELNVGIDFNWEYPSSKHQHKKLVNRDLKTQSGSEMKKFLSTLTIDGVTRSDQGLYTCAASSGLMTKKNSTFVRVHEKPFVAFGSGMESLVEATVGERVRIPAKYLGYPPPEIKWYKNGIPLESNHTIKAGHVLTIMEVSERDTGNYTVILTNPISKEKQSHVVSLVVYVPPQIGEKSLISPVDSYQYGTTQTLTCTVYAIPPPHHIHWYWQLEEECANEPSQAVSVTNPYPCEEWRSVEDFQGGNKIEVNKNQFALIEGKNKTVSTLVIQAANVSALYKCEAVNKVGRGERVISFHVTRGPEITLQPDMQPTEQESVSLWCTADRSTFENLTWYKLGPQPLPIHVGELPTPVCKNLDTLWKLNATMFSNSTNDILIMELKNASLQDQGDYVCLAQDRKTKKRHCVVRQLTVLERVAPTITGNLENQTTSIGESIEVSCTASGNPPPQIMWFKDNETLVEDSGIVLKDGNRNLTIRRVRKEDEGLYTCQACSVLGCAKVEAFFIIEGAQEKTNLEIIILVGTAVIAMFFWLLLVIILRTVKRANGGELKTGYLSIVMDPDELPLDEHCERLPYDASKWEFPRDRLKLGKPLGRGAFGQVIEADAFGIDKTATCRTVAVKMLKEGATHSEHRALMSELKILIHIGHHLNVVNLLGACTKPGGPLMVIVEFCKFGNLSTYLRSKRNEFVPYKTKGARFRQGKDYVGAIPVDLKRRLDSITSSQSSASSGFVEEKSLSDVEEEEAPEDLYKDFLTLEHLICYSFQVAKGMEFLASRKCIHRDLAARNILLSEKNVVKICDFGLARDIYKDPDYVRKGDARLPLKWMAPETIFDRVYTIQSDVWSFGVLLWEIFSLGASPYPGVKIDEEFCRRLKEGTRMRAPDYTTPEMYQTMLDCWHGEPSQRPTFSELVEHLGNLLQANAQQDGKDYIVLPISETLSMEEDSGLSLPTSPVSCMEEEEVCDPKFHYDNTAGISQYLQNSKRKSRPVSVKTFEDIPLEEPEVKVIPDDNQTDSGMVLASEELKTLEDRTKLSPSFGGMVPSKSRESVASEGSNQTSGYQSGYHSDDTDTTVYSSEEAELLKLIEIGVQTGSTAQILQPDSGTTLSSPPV

SMILES | inhibition [2] | inhibition [4] | also measured
Nc1ccc(SCC(=O)O)c(F)c1 |  |  | inhibition [1]: 10%
CNC(=O)c1cc(Oc2ccc(NC(=O)Nc3ccc(SCC(=O)O)cc3)c(F)c2)ccn1 | 27% |  | inhibition [3]: 17%
CNC(=O)c1cc(Oc2ccc(NC(=O)Nc3cccc(CCN)c3)c(F)c2)ccn1 |  | 12% | 
CNC(=O)c1cc(Oc2ccc(NC(=O)Nc3cccc(SCC(=O)O)c3)c(F)c2)ccn1 | 25% |  | 
CNC(=O)c1cc(Oc2ccc(NC(=O)Nc3ccc(C(=O)O)cc3)c(F)c2)ccn1 |  | inactive | 
CNC(=O)c1cc(Oc2ccc(NC(=O)Nc3cccc(C(C)(C)N)c3)c(F)c2)ccn1 |  | 32% | 
CNC(=O)c1cc(Oc2ccc(NC(=O)Nc3ccc(N4CC(=O)NS4(=O)=O)c(C)c3)c(F)c2)ccn1 |  | 1% | 
CNC(=O)c1cc(Oc2ccc(NC(=O)Nc3cccc(C(C)(C)C(=O)O)c3)c(F)c2)ccn1 | 47% |  | 
CNC(=O)c1cc(Oc2ccc(NC(=O)Nc3ccc(SCC(=O)O)c(F)c3)c(F)c2)ccn1 | 70% |  | Selectivity Index (Homo sapiens [5]): > 10; inhibition [6]: 35.8%; inhibition [3]: 64%; Ratio IC50 (Homo sapiens [7]): 2
CNC(=O)c1cc(Oc2ccc(NC(=O)Nc3cccc(C(=O)O)c3)c(F)c2)ccn1 |  | inactive | 
CNC(=O)c1cc(Oc2ccc(NC(=O)Nc3ccc(CC(=O)O)cc3)c(F)c2)ccn1 | 18% |  | 
CNC(=O)c1cc(Oc2ccc(NC(=O)Nc3ccc(OCCS(C)(=O)=O)c(C)c3)c(F)c2)ccn1 |  | 35% | 
CNC(=O)c1cc(Oc2ccc(NC(=O)Nc3cccc(CC(=O)O)c3)c(F)c2)ccn1 | inactive |  | inhibition [3]: inactive
